According to US12643887B2, “Heterocyclic derivatives with cardiomyocyte proliferation activity for treatment of heart diseases” (Tongji University, priority 2019, dated 2026):

What was measured:
[1] = system: Neonatal Rat Ventricular Myocytes (NRVMs); test: Myocyte proliferation assay (EdU assay) in neonatal rat ventricular myocytes; format: cell-based; details: growth relative to blank myocyte growth without compound added; for Avg 1 uM (average myocyte proliferation): compound 1 uM; for Avg 3 uM (average myocyte proliferation): compound 3 uM; for Avg 10 uM (average myocyte proliferation): compound 10 uM
In short: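 After 36 h compound exposure (1, 3 or 10 uM in 6% FBS/ITS DMEM, following 24 h low-serum culture), NRVMs were pulsed with EdU for 12 h. Proliferation scored by automated confocal imaging of EdU click chemistry, ab8295 immunostaining and DAPI nuclei in fixed cultures.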

human CLK1 = biological target: T1, human CLK1 (Homo sapiens, UniProt P49759); test: CLK1 enzyme assay (ADP-Glo); format: biochemical; details: ADP-Glo, ATP 10 μM; read-out: CLK1 IC50
T1 construct: Recombinant human CLK1 (129-end); GST (N); purchased SignalChem C57-11G; host or cells: Sf9 insect cells
In short: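 GST-tagged CLK1 (129-end, Sf9-expressed) at 16 nM was preincubated with compound 30 min at 25 °C in 40 mM Tris pH 7.5, 20 mM MgCl2, 0.1 mg/ml BSA, 50 μM DTT. Reaction with 2 μM substrate and 10 μM ATP ran 60 min at 25 °C. ADP-Glo luminescence gave IC50 by four-parameter fit.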

T1 sequence (P49759 129-484 limits assumed): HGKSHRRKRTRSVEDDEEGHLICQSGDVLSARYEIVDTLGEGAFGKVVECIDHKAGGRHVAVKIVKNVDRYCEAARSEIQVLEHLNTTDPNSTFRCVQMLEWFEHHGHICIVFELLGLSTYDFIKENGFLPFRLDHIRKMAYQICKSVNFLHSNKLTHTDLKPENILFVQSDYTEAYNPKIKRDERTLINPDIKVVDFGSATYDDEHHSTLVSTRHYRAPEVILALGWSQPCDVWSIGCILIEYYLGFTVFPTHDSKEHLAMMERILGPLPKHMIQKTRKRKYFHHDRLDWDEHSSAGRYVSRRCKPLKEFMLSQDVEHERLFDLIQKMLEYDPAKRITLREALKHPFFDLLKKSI

SMILES	Avg 1 uM (average myocyte proliferation) [1]	Avg 3 uM (average myocyte proliferation) [1]	Avg 10 uM (average myocyte proliferation) [1]	IC50 (human CLK1) [nM]
CN(Cc1ccccc1)C1=N/C(=C\c2ccc3ncsc3c2)C(=O)N1 [Example 28, (Z)-5-(benzo[d]thiazol-6-ylmethylene)-2-(benzyl(methyl)amino)-3,5-dihydro-4H-imidazol-4-one]	* (<10% growth relative to blank myocyte growth without compound added.)	* (<10% growth relative to blank myocyte growth without compound added.)	* (<10% growth relative to blank myocyte growth without compound added.)	100 to 1000
O=C1NC(Nc2ccc3c(c2)OCCO3)=N/C1=C\c1ccc2ncsc2c1 [Example 81, (Z)-5-(benzo[d]thiazol-6-ylmethylene)-2-((2,3-dihydrobenzo[b][1,4]dioxin-6-yl)amino)-3,5-dihydro-4H-imidazol-4-one]	* (<10% growth relative to blank myocyte growth without compound added.)	* (<10% growth relative to blank myocyte growth without compound added.)	–	< 100
O=C(O)CCN(C1=N/C(=C\c2ccc3c(c2)OCO3)C(=O)N1)c1ccccc1 [Example 27, (Z)-3-((4-(benzo[d][1,3]dioxol-5-ylmethylene)-5-oxo-4,5-dihydro-1H-imidazol-2-yl)(phenyl)amino)propanoic acid]	* (<10% growth relative to blank myocyte growth without compound added.)	* (<10% growth relative to blank myocyte growth without compound added.)	** (10%-50%)	1000 to 10000
CN(C1=N/C(=C\c2ccc3c(c2)OCCO3)C(=O)N1)c1ccc2ncsc2c1 [Example 84, (Z)-2-(benzo[d]thiazol-6-yl(methyl)amino)-5-((2,3-dihydrobenzo[b][1,4]dioxin-6-yl)methylene)-3,5-dihydro-4H-imidazol-4-one]	* (<10% growth relative to blank myocyte growth without compound added.)	** (10%-50%)	–	100 to 1000
O=C1NC(N(CCO)c2ccccc2)=N/C1=C\c1ccc2c(c1)OCO2 [Example 13, (Z)-5-(benzo[d][1,3]dioxol-5-ylmethylene)-2-((2-hydroxyethyl)(phenyl)amino)-3,5-dihydro-4H-imidazol-4-one]	* (<10% growth relative to blank myocyte growth without compound added.)	** (10%-50%)	–	100 to 1000
CN1C(=O)/C(=C/c2ccc3c(c2)OCO3)N=C1N(C)c1ccccc1 [Example 3, (Z)-5-(benzo[d][1,3]dioxol-5-ylmethylene)-3-methyl-2-(methyl(phenyl)amino)-3,5-dihydro-4H-imidazol-4-one]	* (<10% growth relative to blank myocyte growth without compound added.)	* (<10% growth relative to blank myocyte growth without compound added.)	* (<10% growth relative to blank myocyte growth without compound added.)	1000 to 10000
Cn1cnc2ccc(/C=C3\N=C(Nc4ccccc4)NC3=O)cc21 [Example 46, (Z)-5-((1-methyl-1H-benzo[d]imidazol-6-yl)methylene)-2-(phenylamino)-3,5-dihydro-4H-imidazol-4-one]	*** (>50%)	** (10%-50%)	*** (>50%)	< 100
CN(Cc1ccccc1)C1=N/C(=C\c2ccc3c(c2)OCO3)C(=O)N1 [Example 23, (Z)-5-(benzo[d][1,3]dioxol-5-ylmethylene)-2-(benzyl(methyl)amino)-3,5-dihydro-4H-imidazol-4-one]	** (10%-50%)	** (10%-50%)	** (10%-50%)	100 to 1000
O=C1NC(Nc2ccccc2)=N/C1=C\c1cncs1 [Example 15, (Z)-2-(phenylamino)-5-(thiazol-5-ylmethylene)-3,5-dihydro-4H-imidazol-4-one]	* (<10% growth relative to blank myocyte growth without compound added.)	** (10%-50%)	–	> 10000
CN(C1=N/C(=C\c2ccc3ncsc3c2)C(=O)N1)c1ccc2ncsc2c1 [Example 83, (Z)-2-(benzo[d]thiazol-6-yl(methyl)amino)-5-(benzo[d]thiazol-6-ylmethylene)-3,5-dihydro-4H-imidazol-4-one]	** (10%-50%)	** (10%-50%)	–	< 100
O=C1/C(=C/c2ccc3c(c2)OCO3)N=C(N(Cc2ccccc2)c2ccccc2)N1Cc1ccccc1 [Example 2, (Z)-5-(benzo[d][1,3]dioxol-5-ylmethylene)-3-benzyl-2-(benzyl(phenyl)amino)-3,5-dihydro-4H-imidazol-4-one]	* (<10% growth relative to blank myocyte growth without compound added.)	* (<10% growth relative to blank myocyte growth without compound added.)	*** (>50%)	1000 to 10000
O=C1NC(N(Cc2ccccc2)c2ccccc2)=N/C1=C\c1ccc2c(c1)OCO2 [Example 22, (Z)-5-(benzo[d][1,3]dioxol-5-ylmethylene)-2-(benzyl(phenyl)amino)-3,5-dihydro-4H-imidazol-4-one]	** (10%-50%)	** (10%-50%)	** (10%-50%)	1000 to 10000
